Source: patent publication US9006250B2, “4-amino-6-(heterocyclic)picolinates and 6-amino-2-(heterocyclic)pyrimidine-4-carboxylates and their use as herbicides” (Dow AgroSciences, LLC, priority 2013, dated 2015)

How the values were obtained:
[1] = test system: TRZAS: wheat, spring (Triticum aestivum); assay: Post-Emergent Test II herbicidal activity; assay type: in vivo; settings: post-emergence, 336 h, 14 days, read-out: Visual Growth Reduction (%) 14 Days After Application TRZAS
Method in brief: (§1)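 Seedlings raised 7-21 d under greenhouse conditions were treated at the first or second true leaf stage. Compounds, formulated with crop oil concentrate and surfactant, were applied overhead at 187 L/ha across a serial dilution series, with solvent-blank controls. Percent visual injury was scored after 14 d.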

[2] = test system: ORYSA: rice (Oryza sativa); assay: Post-Emergent Test II herbicidal activity; assay type: in vivo; settings: post-emergence, 336 h, 14 days, read-out: Visual Growth Reduction (%) 14 Days After Application ORYSA
Method in brief: as §1

[3] = test system: SETFA: giant foxtail (Setaria faberi); assay: Post-Emergent Test II herbicidal activity; assay type: in vivo; settings: post-emergence, 336 h, 14 days, read-out: Visual Growth Reduction (%) 14 Days After Application SETFA
Method in brief: as §1

[4] = test system: CHEAL: lambsquarters (Chenopodium album); assay: Post-Emergent Test II herbicidal activity; assay type: in vivo; settings: post-emergence, 336 h, 14 days, read-out: Visual Growth Reduction (%) 14 Days After Application CHEAL
Method in brief: as §1

[5] = test system: CYPES: yellow nutsedge (Cyperus esculentus); assay: Post-Emergent Test II herbicidal activity; assay type: in vivo; settings: post-emergence, 336 h, 14 days, read-out: Visual Growth Reduction (%) 14 Days After Application CYPES
Method in brief: as §1

[6] = test system: ZEAMX: maize, corn (Zea mays); assay: Post-Emergent Test II herbicidal activity; assay type: in vivo; settings: post-emergence, 336 h, 14 days, read-out: Visual Growth Reduction (%) 14 Days After Application ZEAMX
Method in brief: as §1

[7] = test system: EPHHL: wild poinsettia (Euphorbia heterophylla); assay: Post-Emergent Test II herbicidal activity; assay type: in vivo; settings: post-emergence, 336 h, 14 days, read-out: Visual Growth Reduction (%) 14 Days After Application EPHHL
Method in brief: as §1

[8] = test system: AMARE: redroot pigweed (Amaranthus retroflexus); assay: Post-Emergent Test II herbicidal activity; assay type: in vivo; settings: post-emergence, 336 h, 14 days, read-out: Visual Growth Reduction (%) 14 Days After Application AMARE
Method in brief: as §1

[9] = test system: ABUTH: velvetleaf (Abutilon theophrasti); assay: Post-Emergent Test II herbicidal activity; assay type: in vivo; settings: post-emergence, 336 h, 14 days, read-out: Visual Growth Reduction (%) 14 Days After Application ABUTH
Method in brief: as §1

[10] = test system: BRSNN: oilseed rape, canola (Brassica napus); assay: Post-Emergent Test II herbicidal activity; assay type: in vivo; settings: post-emergence, 336 h, 14 days, read-out: Visual Growth Reduction (%) 14 Days After Application BRSNN
Method in brief: as §1

[11] = test system: HELAN: sunflower (Helianthus annuus); assay: Post-Emergent Test II herbicidal activity; assay type: in vivo; settings: post-emergence, 336 h, 14 days, read-out: Visual Growth Reduction (%) 14 Days After Application HELAN
Method in brief: as §1

[12] = test system: ECHCG: barnyardgrass (Echinochloa crus-galli); assay: Post-Emergent Test II herbicidal activity; assay type: in vivo; settings: post-emergence, 336 h, 14 days, read-out: Visual Growth Reduction (%) 14 Days After Application ECHCG
Method in brief: as §1

melting point: 196 to 198 °C
Compound: COC(=O)c1nc(-c2ccc3nsnc3c2)c(F)c(N)c1Cl [Compound 11]
pest or weed control at 35 g/ha ([1]; 35 g ai/ha): 0 to 29%
pest or weed control at 70 g/ha ([1]; 70 g ai/ha): 0 to 29%
pest or weed control at 140 g/ha ([1]; 140 g ai/ha): 0 to 29%
pest or weed control at 35 g/ha ([2]; 35 g ai/ha): 0 to 29%
pest or weed control at 70 g/ha ([2]; 70 g ai/ha): 0 to 29%
pest or weed control at 140 g/ha ([2]; 140 g ai/ha): 0 to 29%
pest or weed control at 35 g/ha ([3]; 35 g ai/ha): 45 to 59%
pest or weed control at 70 g/ha ([3]; 70 g ai/ha): 85 to 94%
pest or weed control at 140 g/ha ([3]; 140 g ai/ha): 85 to 94%
pest or weed control at 35 g/ha ([4]; 35 g ai/ha): 85 to 94%
pest or weed control at 70 g/ha ([4]; 70 g ai/ha): 95 to 100%
pest or weed control at 140 g/ha ([4]; 140 g ai/ha): 95 to 100%
pest or weed control at 35 g/ha ([5]; 35 g ai/ha): 95 to 100%
pest or weed control at 70 g/ha ([5]; 70 g ai/ha): 95 to 100%
pest or weed control at 140 g/ha ([5]; 140 g ai/ha): 95 to 100%
pest or weed control at 35 g/ha ([6]; 35 g ai/ha): 60 to 74%
pest or weed control at 70 g/ha ([6]; 70 g ai/ha): 60 to 74%
pest or weed control at 140 g/ha ([6]; 140 g ai/ha): 75 to 84%
pest or weed control at 35 g/ha ([7]; 35 g ai/ha): 95 to 100%
pest or weed control at 70 g/ha ([7]; 70 g ai/ha): 95 to 100%
pest or weed control at 140 g/ha ([7]; 140 g ai/ha): 95 to 100%
pest or weed control at 35 g/ha ([8]; 35 g ai/ha): 95 to 100%
pest or weed control at 70 g/ha ([8]; 70 g ai/ha): 95 to 100%
pest or weed control at 140 g/ha ([8]; 140 g ai/ha): 95 to 100%
pest or weed control at 35 g/ha ([9]; 35 g ai/ha): 85 to 94%
pest or weed control at 70 g/ha ([9]; 70 g ai/ha): 95 to 100%
pest or weed control at 140 g/ha ([9]; 140 g ai/ha): 95 to 100%
pest or weed control at 35 g/ha ([10]; 35 g ai/ha): 60 to 74%
pest or weed control at 70 g/ha ([10]; 70 g ai/ha): 75 to 84%
pest or weed control at 140 g/ha ([10]; 140 g ai/ha): 75 to 84%
pest or weed control at 35 g/ha ([11]; 35 g ai/ha): 85 to 94%
pest or weed control at 70 g/ha ([11]; 70 g ai/ha): 85 to 94%
pest or weed control at 140 g/ha ([11]; 140 g ai/ha): 95 to 100%
pest or weed control at 35 g/ha ([12]; 35 g ai/ha): 85 to 94%
pest or weed control at 70 g/ha ([12]; 70 g ai/ha): 95 to 100%
pest or weed control at 140 g/ha ([12]; 140 g ai/ha): 95 to 100%
